Consider 23 molecules from patent publication US20180243298A1, “TRPV3 MODULATORS” (AbbVie Inc., priority 2015, published 2018).

SMILES strings stand for the structures. Some results are limits rather than exact numbers.

One assay has as its system FITC-challenged mice. In words: Contact hypersensitivity (CHS) to FITC, ear swelling in mice. Type of assay: in vivo, mice (BALB/c). Conditions: Mus musculus; 100 mg/kg bid po; reduction in ear skin thickness vs vehicle, 24 hours after FITC challenge; read-out: FITC % effect. The procedure: (ii) In vivo Data The following protocol was used to evaluate the efficacy of a compound against contact hypersensitivity:
Young adult female BALB/c mice (18±2 g body weight at 6-8 weeks old) Charles River Laboratories) were maintained under pathogen-free conditions and housed in an animal room maintained t at temperature of 21±1° C. and a humidity of 43±5%. Induction of contact hypersensitivity (CHS) and ear thickness measurements for all animals were carried out under light anesthesia (3-5% isoflurane/oxygen) for 1-2 minutes.
Contact hypersensitivity consists of the afferent or initiation sensitizing phase, and the efferent or elicitation phase. The latter phase occurs when epidermal cells encounter a particular antigen to which the epidermal cells have previously been exposed, and is characterized in rodents by localized swelling in the skin.
Fluorescein isothiocyanate (FITC) was purchased from Sigma-Aldrich and dissolved in 1:1 in acetone/dibutylphthalate prior to epicutaneous application. Mice were sensitized by painting epicutaneously 40 uL of 0.5% FITC on the abdomen ventral skin shaved one day prior to sensitization. Six days later, mice were challenged by painting epicutaneously 20 uL total volume of 0.5% FITC on the right ear (10 uL on either side). Control mice were treated with vehicle only. Ear swelling was measured 24 hours after challenge. Treatment groups were dosed orally at a dose volume of 10 mL/kg with compounds either BID (1 hour prior to FITC challenge, 8 hours after first dose and 2 hours prior to ear swelling measurement at 24 hours post FITC challenge) or QD (1 hour prior to FITC challenge and 2 hours prior to ear swelling measurement at 24 hours post FITC challenge). Inflammation was determined by the degree of ear swelling of the hapten exposed ear compared with the untreated ear with a Quick Mini thickness-gauge caliber (Mitutoyo, Japan). The change in ear thickness after allergen treatment can be used to calculate the percent suppression of contact hypersensitivity.
The level of compound-mediated suppression of ear skin thickness in FITC-challenged mice is indicated in Table 2 wherein “A” refers to a reduction in ear skin thickness of >50%, “B” refers to a reduction in ear skin thickness of 30-50% and “C” refers to a reduction in ear skin thickness of <30% relative to vehicle-treated animals.
`COc1ncnc(OC)c1C(=O)N(COP(=O)(O)O)c1nc(-c2ccc(C(F)(F)F)cn2)cs1` [Example 74, ([(4,6-dimethoxypyrimidin-5-yl)carbonyl]{4-[5-(trifluoromethyl)pyridin-2-yl]-1,3-thiazol-2-yl}amino)methyl dihydrogen phosphate]: the inhibition in vivo at 100 mg/kg was over 50%.

A further assay addresses T1, human TRPV3 (Homo sapiens, UniProt Q8NET8).
T1 construct: expressed in transfected cells; host or cells: HEK293
T1 sequence (Q8NET8 1-790): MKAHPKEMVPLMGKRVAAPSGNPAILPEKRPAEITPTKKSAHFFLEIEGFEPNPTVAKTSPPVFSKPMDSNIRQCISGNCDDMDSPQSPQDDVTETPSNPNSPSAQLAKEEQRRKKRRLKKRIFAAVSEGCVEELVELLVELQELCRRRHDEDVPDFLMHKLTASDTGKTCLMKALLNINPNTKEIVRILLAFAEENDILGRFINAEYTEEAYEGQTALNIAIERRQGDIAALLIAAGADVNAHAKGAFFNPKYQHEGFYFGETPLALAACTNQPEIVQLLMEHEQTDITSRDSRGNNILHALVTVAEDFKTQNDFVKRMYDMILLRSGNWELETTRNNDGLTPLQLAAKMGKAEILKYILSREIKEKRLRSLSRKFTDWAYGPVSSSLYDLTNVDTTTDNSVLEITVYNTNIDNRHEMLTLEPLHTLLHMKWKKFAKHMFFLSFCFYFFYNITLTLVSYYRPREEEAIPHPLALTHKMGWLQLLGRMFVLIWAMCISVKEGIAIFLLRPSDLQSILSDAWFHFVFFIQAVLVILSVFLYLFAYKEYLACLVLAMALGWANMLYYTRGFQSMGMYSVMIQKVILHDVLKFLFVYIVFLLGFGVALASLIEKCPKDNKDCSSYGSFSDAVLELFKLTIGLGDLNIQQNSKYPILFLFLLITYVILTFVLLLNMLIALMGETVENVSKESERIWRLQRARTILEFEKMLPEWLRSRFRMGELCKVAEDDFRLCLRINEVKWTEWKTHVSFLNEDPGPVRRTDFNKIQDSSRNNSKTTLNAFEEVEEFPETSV
In words: Calcium flux assay (FLIPR TETRA), recombinant HEK293 cells expressing TRPV3, 2-APB response. Type of assay: cell-based. Conditions: 2-APB at its EC80. An outline of the steps: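 Response is the peak fluorescence increase over baseline, as a percentage of the compound-free response to 2-APB at EC80. Calcium flux recorded on FLIPR TETRA in stable human or mouse TRPV3 HEK293 cells after 90–120 min Calcium-4 dye loading.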
On to `COc1ncnc(OC)c1C(=O)Nc1nc(C(F)(F)F)c(-c2cn(C)nc2C(C)C)s1` [Example 181, 4,6-dimethoxy-N-{5-[1-methyl-3-(propan-2-yl)-1H-pyrazol-4-yl]-4-(trifluoromethyl)-1,3-thiazol-2-yl}pyrimidine-5-carboxamide], for which the IC50 was 50 to 100 nM.

In the case of `COc1ncnc(OC)c1C(=O)Nc1nc(C(F)(F)F)c(-c2ccnc(N3CCOCC3)c2)s1` [Example 182, 4,6-dimethoxy-N-{5-[2-(morpholin-4-yl)pyridin-4-yl]-4-(trifluoromethyl)-1,3-thiazol-2-yl}pyrimidine-5-carboxamide], the IC50 was in the range of 50 to 100 nM.

As for `COc1ncc(-c2sc(NC(=O)c3c(OC)ncnc3OC)nc2C(F)(F)F)cc1C#N` [Example 184, N-[5-(5-cyano-6-methoxypyridin-3-yl)-4-(trifluoromethyl)-1,3-thiazol-2-yl]-4,6-dimethoxypyrimidine-5-carboxamide], the IC50 was under 50 nM.

With `COc1ncnc(OC)c1C(=O)Nc1nc(C(F)(F)F)c(-c2cccnc2N2CCOCC2)s1` [Example 185, 4,6-dimethoxy-N-{5-[2-(morpholin-4-yl)pyridin-3-yl]-4-(trifluoromethyl)-1,3-thiazol-2-yl}pyrimidine-5-carboxamide], the IC50 was under 50 nM.

`COc1ncnc(OC)c1C(=O)Nc1nc(C(F)(F)F)c(-c2cn(C)nc2C(F)(F)F)s1` [Example 186, 4,6-dimethoxy-N-{5-[1-methyl-3-(trifluoromethyl)-1H-pyrazol-4-yl]-4-(trifluoromethyl)-1,3-thiazol-2-yl}pyrimidine-5-carboxamide]: the IC50 is under 50 nM.

`COc1ncnc(OC)c1C(=O)Nc1nc(C(F)(F)F)c(-c2cc3ncccc3o2)s1` [Example 187, N-[5-(furo[3,2-b]pyridin-2-yl)-4-(trifluoromethyl)-1,3-thiazol-2-yl]-4,6-dimethoxypyrimidine-5-carboxamide]: the IC50 fell in the range of 100 to 500 nM.

`COc1ncnc(OC)c1C(=O)Nc1nc(C(F)(F)F)c(-c2ccnn2CC2CC2)s1` [Example 188, N-{5-[1-(cyclopropylmethyl)-1H-pyrazol-5-yl]-4-(trifluoromethyl)-1,3-thiazol-2-yl}-4,6-dimethoxypyrimidine-5-carboxamide]: the IC50 was under 50 nM.

As to `COc1ncnc(OC)c1C(=O)Nc1nc(C(C)(C)C)c(C#N)s1` [Example 189, N-(4-tert-butyl-5-cyano-1,3-thiazol-2-yl)-4,6-dimethoxypyrimidine-5-carboxamide], the IC50 is under 50 nM.

Turning to `COc1ncnc(OC)c1C(=O)Nc1nc(C2CC2)c(Cc2ccc(F)cc2)s1` [Example 190, N-[4-cyclopropyl-5-(4-fluorobenzyl)-1,3-thiazol-2-yl]-4,6-dimethoxypyrimidine-5-carboxamide], the half-inhibitory concentration (IC50) was in the range of 50 to 100 nM.

As for `COc1ncnc(OC)c1C(=O)Nc1nc(CC(C)(C)C)cs1` [Example 191, N-[4-(2,2-dimethylpropyl)-1,3-thiazol-2-yl]-4,6-dimethoxypyrimidine-5-carboxamide], the IC50 is 50 to 100 nM.

As to `COc1ncnc(OC)c1C(=O)Nc1nc(C(C)(C)C)c(Br)s1` [Example 192, N-(5-bromo-4-tert-butyl-1,3-thiazol-2-yl)-4,6-dimethoxypyrimidine-5-carboxamide], the IC50 is under 50 nM.

With `CCOC(=O)c1sc(NC(=O)c2c(OC)ncnc2OC)nc1C(C)(C)C` [Example 193, ethyl 4-tert-butyl-2-{[(4,6-dimethoxypyrimidin-5-yl)carbonyl]amino}-1,3-thiazole-5-carboxylate], the IC50 was under 50 nM.

For the molecule `COc1ncnc(OC)c1C(=O)Nc1nc(C(F)(F)F)c(-c2ccc(OCC(F)(F)F)nc2)s1` [Example 194, 4,6-dimethoxy-N-{5-[6-(2,2,2-trifluoroethoxy)pyridin-3-yl]-4-(trifluoromethyl)-1,3-thiazol-2-yl}pyrimidine-5-carboxamide], the IC50 lay in the range of 100 to 500 nM.

Consider `COc1ncnc(OC)c1C(=O)Nc1nc(C(F)(F)F)c(-c2cccc(S(=O)(=O)N3CCOCC3)c2)s1` [Example 195, 4,6-dimethoxy-N-{5-[3-(morpholin-4-ylsulfonyl)phenyl]-4-(trifluoromethyl)-1,3-thiazol-2-yl}pyrimidine-5-carboxamide], for which the IC50 is 50 to 100 nM.

Turning to `COCCN(C)S(=O)(=O)c1cccc(-c2sc(NC(=O)c3c(OC)ncnc3OC)nc2C(F)(F)F)c1` [Example 197, 4,6-dimethoxy-N-[5-{3-[(2-methoxyethyl)(methyl)sulfamoyl]phenyl}-4-(trifluoromethyl)-1,3-thiazol-2-yl]pyrimidine-5-carboxamide], the IC50 was under 50 nM.

Take `COc1ncnc(OC)c1C(=O)Nc1nc(C(F)(F)F)c(-c2ccc(CN3CCOCC3)cc2)s1` [Example 198, 4,6-dimethoxy-N-{5-[4-(morpholin-4-ylmethyl)phenyl]-4-(trifluoromethyl)-1,3-thiazol-2-yl}pyrimidine-5-carboxamide]: the IC50 is under 50 nM.

`CCn1cc(-c2sc(NC(=O)c3c(OC)ncnc3OC)nc2C(F)(F)F)c(C)n1` [Example 200, N-[5-(1-ethyl-3-methyl-1H-pyrazol-4-yl)-4-(trifluoromethyl)-1,3-thiazol-2-yl]-4,6-dimethoxypyrimidine-5-carboxamide]: the half-maximal inhibitory concentration (IC50) was under 50 nM.

With `COc1ncnc(OC)c1C(=O)Nc1nc(C(F)(F)F)c(-c2cccc(NS(=O)(=O)N(C)C)c2)s1` [Example 201, N-[5-{3-[(dimethylsulfamoyl)amino]phenyl}-4-(trifluoromethyl)-1,3-thiazol-2-yl]-4,6-dimethoxypyrimidine-5-carboxamide], the IC50 was 50 to 100 nM.

As for `COc1ncnc(OC)c1C(=O)Nc1nc(C(F)(F)F)c(-c2cnc(C3CC3)nc2)s1` [Example 203, N-[5-(2-cyclopropylpyrimidin-5-yl)-4-(trifluoromethyl)-1,3-thiazol-2-yl]-4,6-dimethoxypyrimidine-5-carboxamide], the IC50 was under 50 nM.

For `COc1ncnc(OC)c1C(=O)Nc1nc(C(F)(F)F)c(-c2cnc(N3CCOCC3)c(C#N)c2)s1` [Example 204, N-{5-[5-cyano-6-(morpholin-4-yl)pyridin-3-yl]-4-(trifluoromethyl)-1,3-thiazol-2-yl}-4,6-dimethoxypyrimidine-5-carboxamide], the IC50 was under 50 nM.

Turning to `COc1ncnc(OC)c1C(=O)Nc1nc(C(F)(F)F)c(-c2cnc(C#N)c(OCC3COC3)c2)s1` [Example 205, N-(5-(6-cyano-5-(oxetan-3-yl-methoxy)pyridine-3-yl)-4-(trifluoromethyl)thiazol-2-yl)-4,6-dimethoxypyrimidine-5-carboxamide], the IC50 was in the range of 100 to 500 nM.

On to `COCc1sc(NC(=O)c2c(OC)ncnc2OC)nc1C(F)(F)F` [Example 206, 4,6-dimethoxy-N-(5-(methoxymethyl)-4-(trifluoromethyl)thiazol-2-yl)pyrimidine-5-carboxamide], for which the IC50 lay within 100 to 500 nM.
